Laboratory results taken from US20230167073A1 (Teijin Pharma Limited, priority 2020, published 2023).

These compounds were tested against T1, Human TRPC6 (Homo sapiens, UniProt Q9Y210) (assay: Evaluation of TRPC6 channel inhibitory activity (1), FLIPR Calcium 5 Assay Kit, OAG stimulation (Compound Nos. 1-1293)). Details: Human TRPC6 stably-expressing cells, OAG 30 μM, FLIPR Calcium 5 Assay Kit; read-out: Inhibitory activity (pIC50 class) (converted).
T1 construct: expressed in transfected cells
T1 sequence (Q9Y210 1-931): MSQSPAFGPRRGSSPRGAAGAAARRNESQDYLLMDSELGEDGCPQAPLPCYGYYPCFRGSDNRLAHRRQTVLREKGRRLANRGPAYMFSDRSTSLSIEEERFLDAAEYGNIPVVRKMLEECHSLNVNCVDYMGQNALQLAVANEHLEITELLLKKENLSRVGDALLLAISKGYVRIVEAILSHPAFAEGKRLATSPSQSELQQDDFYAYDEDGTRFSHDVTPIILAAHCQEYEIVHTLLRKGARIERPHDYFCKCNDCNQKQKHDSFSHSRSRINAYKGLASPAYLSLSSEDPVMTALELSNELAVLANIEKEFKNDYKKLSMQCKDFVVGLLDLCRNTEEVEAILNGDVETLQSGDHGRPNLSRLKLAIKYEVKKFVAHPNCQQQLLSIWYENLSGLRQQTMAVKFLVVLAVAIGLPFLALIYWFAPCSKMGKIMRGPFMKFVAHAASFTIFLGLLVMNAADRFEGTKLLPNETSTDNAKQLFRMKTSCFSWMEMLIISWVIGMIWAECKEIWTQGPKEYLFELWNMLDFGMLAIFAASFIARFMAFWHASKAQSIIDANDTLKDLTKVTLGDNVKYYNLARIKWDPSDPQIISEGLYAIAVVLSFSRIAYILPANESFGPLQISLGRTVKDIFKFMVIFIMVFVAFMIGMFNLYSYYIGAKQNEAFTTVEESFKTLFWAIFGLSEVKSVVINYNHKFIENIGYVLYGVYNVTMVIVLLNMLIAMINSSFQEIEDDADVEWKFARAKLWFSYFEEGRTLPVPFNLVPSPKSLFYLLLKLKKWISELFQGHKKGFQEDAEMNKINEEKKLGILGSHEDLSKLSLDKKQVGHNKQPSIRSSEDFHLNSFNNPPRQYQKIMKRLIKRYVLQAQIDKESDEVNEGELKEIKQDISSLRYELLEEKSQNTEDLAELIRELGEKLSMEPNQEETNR
Assay type: cell-based
Procedure, shortened: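 TRPC6 (human) stable cells, 24 h culture; Ca5 no-wash dye + probenecid 30 min; cpd 20 min; OAG 30 μM final; ΔF (pre-cpd min to post-OAG max); 0%/100% = no cpd / no cpd + no OAG; 4PL → pIC50, binned +/++/+++.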

IC50, 10 to 1000 nM:
CC(C)Cc1cn(Cc2cc(C#N)ccc2-c2ncc(CN)cn2)nn1 [compound 1188, 4-[5-(aminomethyl)pyrimidin-2-yl]-3-[[4-(2-methylpropyl)triazol-1-yl]methyl]benzonitrile]
CC(C)c1cn(Cc2cc(C#N)ccc2-c2ncc(CN)cn2)nn1 [compound 1189, 4-[5-(aminomethyl)pyrimidin-2-yl]-3-[(4-propan-2-yltriazol-1-yl)methyl]benzonitrile]
N#Cc1ccc(-c2ncc(CN)cn2)c(Cn2cc(C3CCCCC3)nn2)c1 [compound 1190, 4-[5-(aminomethyl)pyrimidin-2-yl]-3-[(4-cyclohexyltriazol-1-yl)methyl]benzonitrile]
N#Cc1ccc(-c2ncc(CN)cn2)c(Cn2cc(C3CC3)nn2)c1 [compound 1191, 4-[5-(aminomethyl)pyrimidin-2-yl]-3-[(4-cyclopropyltriazol-1-yl)methyl]benzonitrile]
Cc1nc(-c2cncc(F)c2)cn1Cc1cc(C#N)ccc1-c1ccc(CCN)cn1 [compound 1193, 4-[5-(2-aminoethyl)pyridin-2-yl]-3-[[4-(5-fluoropyridin-3-yl)-2-methylimidazol-1-yl]methyl]benzonitrile]
CC(C)Cn1cc(Cc2cc(C#N)ccc2-c2ncc(CN)cn2)cn1 [compound 1196, 4-[5-(aminomethyl)pyrimidin-2-yl]-3-[[1-(2-methylpropyl)pyrazol-4-yl]methyl]benzonitrile]
N#Cc1ccc(-c2ncc(CCN)cn2)c(Cc2cnn(-c3ccccn3)c2)c1 [compound 1197, 4-[5-(2-aminoethyl)pyrimidin-2-yl]-3-[(1-pyridin-2-ylpyrazol-4-yl)methyl]benzonitrile]
N#Cc1ccc(-c2ncc(CCN)cn2)c(Cn2cc(N3CCOCC3)cn2)c1 [compound 1200, 4-[5-(2-aminoethyl)pyrimidin-2-yl]-3-[(4-morpholin-4-ylpyrazol-1-yl)methyl]benzonitrile]
N#Cc1ccc(-c2ncc(CCN)cn2)c(Cn2cc(-c3ccccc3)cn2)c1 [compound 1201, 4-[5-(2-aminoethyl)pyrimidin-2-yl]-3-[(4-phenylpyrazol-1-yl)methyl]benzonitrile]
Cc1cc(Cc2cc(C#N)ccc2-c2ncc(CCN)cn2)cc(N2CCOCC2)n1 [compound 1204, 4-[5-(2-aminoethyl)pyrimidin-2-yl]-3-[(2-methyl-6-morpholin-4-ylpyridin-4-yl)methyl]benzonitrile]
CN(C)c1cc(Cc2cc(C#N)ccc2-c2ncc(CN)cn2)n(C)n1 [compound 1209, 4-[5-(aminomethyl)pyrimidin-2-yl]-3-[[5-(dimethylamino)-2-methylpyrazol-3-yl]methyl]benzonitrile]
Cn1nc(N2CCCCC2)cc1Cc1cc(C#N)ccc1-c1ncc(CN)cn1 [compound 1213, 4-[5-(aminomethyl)pyrimidin-2-yl]-3-[(2-methyl-5-piperidin-1-ylpyrazol-3-yl)methyl]benzonitrile]
CN(C)c1cc(Cc2cc(C#N)ccc2-c2ncc(CCN)cn2)n(C)n1 [compound 1216, 4-[5-(2-aminoethyl)pyrimidin-2-yl]-3-[[5-(dimethylamino)-2-methylpyrazol-3-yl]methyl]benzonitrile]

IC50, < 10 nM:
CC(C)Cc1cn(Cc2cc(C#N)ccc2-c2ncc(CCN)cn2)nn1 [compound 1184, 4-[5-(2-aminoethyl)pyrimidin-2-yl]-3-[[4-(2-methylpropyl)triazol-1-yl]methyl]benzonitrile]
CC(C)c1cn(Cc2cc(C#N)ccc2-c2ncc(CCN)cn2)nn1 [compound 1185, 4-[5-(2-aminoethyl)pyrimidin-2-yl]-3-[(4-propan-2-yltriazol-1-yl)methyl]benzonitrile]
N#Cc1ccc(-c2ncc(CCN)cn2)c(Cn2cc(C3CCCCC3)nn2)c1 [compound 1186, 4-[5-(2-aminoethyl)pyrimidin-2-yl]-3-[(4-cyclohexyltriazol-1-yl)methyl]benzonitrile]
Cc1nn(CC(C)C)cc1Cc1cc(C#N)ccc1-c1ncc(CCN)cn1 [compound 1199, 4-[5-(2-aminoethyl)pyrimidin-2-yl]-3-[[3-methyl-1-(2-methylpropyl)pyrazol-4-yl]methyl]benzonitrile]
Cc1nn(-c2ccccn2)cc1Cc1cc(C#N)ccc1-c1ncc(CCN)cn1 [compound 1202, 4-[5-(2-aminoethyl)pyrimidin-2-yl]-3-[(3-methyl-1-pyridin-2-ylpyrazol-4-yl)methyl]benzonitrile]
Cc1nn(-c2ccccn2)cc1Cc1cc(C#N)ccc1-c1ccc(CCN)cn1 [compound 1203, 4-[5-(2-aminoethyl)pyridin-2-yl]-3-[(3-methyl-1-pyridin-2-ylpyrazol-4-yl)methyl]benzonitrile]
Cn1nc(-c2ccccn2)cc1Cc1cc(C#N)ccc1-c1ncc(CN)cn1 [compound 1205, 4-[5-(aminomethyl)pyrimidin-2-yl]-3-[(2-methyl-5-pyridin-2-ylpyrazol-3-yl)methyl]benzonitrile]
CCN(CC)c1cc(Cc2cc(C#N)ccc2-c2ncc(CN)cn2)n(C)n1 [compound 1206, 4-[5-(aminomethyl)pyrimidin-2-yl]-3-[[5-(diethylamino)-2-methylpyrazol-3-yl]methyl]benzonitrile]
CCN(CC)c1cc(Cc2cc(C#N)ccc2-c2ncc(CCN)cn2)n(C)n1 [compound 1207, 4-[5-(2-aminoethyl)pyrimidin-2-yl]-3-[[5-(diethylamino)-2-methylpyrazol-3-yl]methyl]benzonitrile]
CCN(CC)c1cc(Cc2cc(C#N)ccc2-c2ccc(CCN)cn2)n(C)n1 [compound 1208, 4-[5-(2-aminoethyl)pyridin-2-yl]-3-[[5-(diethylamino)-2-methylpyrazol-3-yl]methyl]benzonitrile]
Cn1nc(N2CCCC2)cc1Cc1cc(C#N)ccc1-c1ncc(CN)cn1 [compound 1210, 4-[5-(aminomethyl)pyrimidin-2-yl]-3-[(2-methyl-5-pyrrolidin-1-ylpyrazol-3-yl)methyl]benzonitrile]
Cn1nc(N2CCCC2)cc1Cc1cc(C#N)ccc1-c1ncc(CCN)cn1 [compound 1211, 4-[5-(2-aminoethyl)pyrimidin-2-yl]-3-[(2-methyl-5-pyrrolidin-1-ylpyrazol-3-yl)methyl]benzonitrile]
Cn1nc(N2CCCC2)cc1Cc1cc(C#N)ccc1-c1ccc(CCN)cn1 [compound 1212, 4-[5-(2-aminoethyl)pyridin-2-yl]-3-[(2-methyl-5-pyrrolidin-1-ylpyrazol-3-yl)methyl]benzonitrile]
Cn1nc(-c2ccccn2)cc1Cc1cc(C#N)ccc1-c1ncc(CCN)cn1 [compound 1214, 4-[5-(2-aminoethyl)pyrimidin-2-yl]-3-[(2-methyl-5-pyridin-2-ylpyrazol-3-yl)methyl]benzonitrile]
Cn1nc(-c2ccccn2)cc1Cc1cc(C#N)ccc1-c1ccc(CCN)cn1 [compound 1215, 4-[5-(2-aminoethyl)pyridin-2-yl]-3-[(2-methyl-5-pyridin-2-ylpyrazol-3-yl)methyl]benzonitrile]

IC50, > 1000 nM:
Cc1nc(CNC(C)C)cn1Cc1cc(C#N)ccc1-c1ncc(CCN)cn1 [compound 1181, 4-[5-(2-aminoethyl)pyrimidin-2-yl]-3-[[2-methyl-4-[(propan-2-ylamino)methyl]imidazol-1-yl]methyl]benzonitrile]
N#Cc1ccc(-c2ncc(CCN)cn2)c(Cn2ccnc2-c2ccccc2)c1 [compound 1182, 4-[5-(2-aminoethyl)pyrimidin-2-yl]-3-[(2-phenylimidazol-1-yl)methyl]benzonitrile]
N#Cc1ccc(-c2ncc(CN)cn2)c(Cn2ccnc2-c2ccccc2)c1 [compound 1183]
Cc1nc(-c2cncc(F)c2)cn1Cc1cc(C#N)ccc1-c1ncc(CN)cn1 [compound 1192, 4-[5-(aminomethyl)pyrimidin-2-yl]-3-[[4-(5-fluoropyridin-3-yl)-2-methylimidazol-1-yl]methyl]benzonitrile]
Cc1nc(-c2cncc(F)c2)cn1Cc1cc(C#N)ccc1-c1ncc(CCN)cn1 [compound 1194, 4-[5-(2-aminoethyl)pyrimidin-2-yl]-3-[[4-(5-fluoropyridin-3-yl)-2-methylimidazol-1-yl]methyl]benzonitrile]
